{
  "source": "paper PMC12562379",
  "about": "“Facile Synthesis of N-vinylindoles via Knoevenagel Condensation: Molecular Features and Biological Activities” (International Journal of Molecular Sciences, 2025)",
  "origin": "cited, not measured here",
  "design": "method as in PMID 29925826",
  "settings": "NH-acid; cited from earlier work",
  "data": [
    {"molecule": "c1ccc2[nH]nnc2c1", "note": "[1H-benzotriazole]", "values": [
      {"measurement": "pKa", "result": 8.2}
    ]}
  ]
}
